Measured values taken from US20160375006A1, “USES OF PARALOG-SELECTIVE INHIBITORS OF GSK3 KINASES” (priority 2012, published 2016).

How the values were obtained:
MAP4K2 = MAP4K2 (Homo sapiens, UniProt Q12851)
Method: (§1) This was completed utilizing one of two assays depending on the kinase being examined.
(§2) A solution of IMAP binding reagent (IMAP Screening Express kit; Molecular Devices) (60 μL) was added to each well and incubated for 30 minutes.
(§3) A solution of termination buffer (QuickScout Screening assist MSA; Carna Biosciences) (60 μL) was added to each well. The entire reaction mixture was then applied to a LabChip3000 system (Caliper Life Science) and the product and substrate peptide peaks were separated and quantified.
(§4) The assay utilized was identical to that of the single point inhibitory activity determination (MSA) but run in dose response. […] A solution of termination buffer (QuickScout Screening assist MSA; Carna Biosciences) (60 μL) was added to each well. The entire reaction mixture was then applied to a LabChip3000 system (Caliper Life Science) and the product and substrate peptide peaks were separated and quantified.

MUSK = MUSK (Homo sapiens, UniProt O15146)
Method: as §1, §2, §3, §4

CK1ε = CK1ε (Homo sapiens, UniProt P49674)
Method: as §1, §2, §3

BRK = BRK (Homo sapiens, UniProt Q13882)
EPHA1 = EPHA1 (Homo sapiens, UniProt P21709)
Method: as §2, §3, §4

KIT(T670I) = KIT(T670I) (Homo sapiens, UniProt P10721, T670I)
Method: as §1, §2, §3, §4

PKACα = PKACα (Homo sapiens, UniProt P17612)
Method: as §1, §2, §3, §4

[1] = test system: pGSK3α/β, β-catenin, CRMP2 in SH-SY5Y cells; settings: SH-SY5Y cells, 1, 5, 10 and 30 μM, 24 hours
Method: The samples were incubated and gently rocked for 1 h before centrifuged at 12 000 g for 10 min. The supernatant total cell lysate was subject to subsequent western blot analysis. […] Membranes were incubated overnight with primary antibodies in a solution of Tris-buffered saline containing Tween 20 (TBST, Sigma) and 5% dry milk. Incubation of secondary antibodies was performed for 1 h at room temperature in a solution of 5% dry milk in TBST.

PKD1 = PKD1 (Homo sapiens, UniProt Q15139)
Method: as §1, §2, §3, §4

PGK = PGK (Homo sapiens, UniProt Q13976)
Method: as §1, §2, §3, §4

PKR = target: T1, PKR (Homo sapiens, UniProt P19525); assay: Carna kinase panel; type: biochemical
T1 construct: purchased Carna Biosciences
Method: as §1, §2, §3

MSSK1 = MSSK1 (Homo sapiens, UniProt Q9UPE1)
Method: as §1, §2, §3, §4

DYRK1A = DYRK1A (Homo sapiens, UniProt Q13627)
Method: as §1, §2, §3, §4

SYK = SYK (Homo sapiens, UniProt P43405)
Method: as §1, §2, §3, §4

PKCβ1 = PKCβ1 (Homo sapiens, UniProt P05771)
Method: as §1, §2, §3

HER2 = HER2 (Homo sapiens, UniProt P04626)
Method: as §1, §2, §3, §4

MAP3K1_Cascade = MAP3K1_Cascade (Homo sapiens, UniProt Q13233)
Method: as §1, §2, §3, §4

[2] = test system: protein synthesis in hippocampal slices; settings: Fmr1 knockout mice hippocampal slices, 10 μM
Method: 500 um hippocampal slices are recovered in ACSF for 3 hours, followed by incubation in GSK3ai or vehicle for an hour, with Actinomycin D (to block transcription) for the last half hour of drug incubation. Slices are then transferred to new chambers containing ACSF with drug/vehicle and S35 (a radiolabeled Met/Cys) for 30 minutes to measure protein synthesis. Slices are then processed and read in a scintillation counter to determine the rate of protein synthesis.

IKKα = IKKα (Homo sapiens, UniProt O15111)
Method: as §1, §2, §3, §4

FGFR4(N535K) = FGFR4(N535K) (Homo sapiens, UniProt P22455, N535K)
Method: as §1, §2, §3

CDC2/CycB1 = CDC2/CycB1 (Homo sapiens, UniProt P06493)
Method: as §1, §2, §3, §4

KIT = KIT (Homo sapiens, UniProt P10721)
Method: as §1, §2, §3

[3] = test system: audiogenic seizure phenotype; settings: Fmr1 KO mice, single dose 30 mg/kg i.p.
RSK1 = RSK1 (Homo sapiens, UniProt Q15418)
Method: as §1, §2, §3

PKCβ2 = PKCβ2 (Homo sapiens, UniProt P05771)
Method: as §1, §2, §3

LKB1 = LKB1 (Homo sapiens, UniProt Q15831)
GSK3α = GSK3α (Homo sapiens, UniProt P49840)
Method: as §1, §2, §3, §4

WEE1 = WEE1 (Homo sapiens, UniProt P30291)
MET(M1250T) = MET(M1250T) (Homo sapiens, UniProt P08581, M1250T)
PLK4 = PLK4 (Homo sapiens, UniProt O00444)
TTK = TTK (Homo sapiens, UniProt P33981)
KIT(D816E) = KIT(D816E) (Homo sapiens, UniProt P10721, D816E)
MET(D1228H) = MET(D1228H) (Homo sapiens, UniProt P08581, D1228H)
BMPR1A = BMPR1A (Homo sapiens, UniProt P36894)
LIMK1 = target: T2, LIMK1 (Homo sapiens, UniProt P53667); assay: Carna kinase panel; type: biochemical
T2 construct: purchased Carna Biosciences
Method: as §1, §2, §3

Sequence of GSK3α (P49840 whole entry): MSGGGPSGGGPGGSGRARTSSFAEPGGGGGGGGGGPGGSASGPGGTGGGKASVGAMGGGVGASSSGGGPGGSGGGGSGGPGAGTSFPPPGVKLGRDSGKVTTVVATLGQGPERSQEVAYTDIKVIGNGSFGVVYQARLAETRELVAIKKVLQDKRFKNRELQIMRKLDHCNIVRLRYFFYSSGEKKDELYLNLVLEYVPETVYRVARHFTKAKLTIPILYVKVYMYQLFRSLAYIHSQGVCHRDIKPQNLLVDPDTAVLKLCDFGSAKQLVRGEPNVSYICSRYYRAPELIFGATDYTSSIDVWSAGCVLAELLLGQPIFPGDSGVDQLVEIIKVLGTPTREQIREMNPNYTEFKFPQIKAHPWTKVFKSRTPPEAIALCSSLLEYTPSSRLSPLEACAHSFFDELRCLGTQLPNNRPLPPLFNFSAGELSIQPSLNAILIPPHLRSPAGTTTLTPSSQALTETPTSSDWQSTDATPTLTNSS
Sequence of CDC2/CycB1 (P06493 whole entry): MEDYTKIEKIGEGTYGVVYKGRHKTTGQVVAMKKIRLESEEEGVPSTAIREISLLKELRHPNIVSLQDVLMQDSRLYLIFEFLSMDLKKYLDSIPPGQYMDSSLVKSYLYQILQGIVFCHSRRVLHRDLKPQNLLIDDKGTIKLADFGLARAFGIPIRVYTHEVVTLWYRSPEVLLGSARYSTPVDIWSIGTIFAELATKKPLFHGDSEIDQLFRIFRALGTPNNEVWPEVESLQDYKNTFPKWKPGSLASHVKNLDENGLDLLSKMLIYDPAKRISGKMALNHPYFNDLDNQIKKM
Sequence of CDC2/CycB1 (P14635 whole entry partner): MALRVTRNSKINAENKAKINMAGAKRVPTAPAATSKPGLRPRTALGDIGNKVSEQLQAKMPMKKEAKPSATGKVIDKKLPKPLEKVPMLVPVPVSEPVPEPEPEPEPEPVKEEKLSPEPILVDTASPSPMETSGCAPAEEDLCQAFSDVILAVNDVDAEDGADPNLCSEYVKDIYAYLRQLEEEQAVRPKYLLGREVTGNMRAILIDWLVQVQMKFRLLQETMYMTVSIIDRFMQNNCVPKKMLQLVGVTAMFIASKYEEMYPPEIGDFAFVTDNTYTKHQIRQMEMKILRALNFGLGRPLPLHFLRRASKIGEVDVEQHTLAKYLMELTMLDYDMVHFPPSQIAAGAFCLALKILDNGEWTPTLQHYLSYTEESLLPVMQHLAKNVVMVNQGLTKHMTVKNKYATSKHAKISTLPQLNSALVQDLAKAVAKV
Sequence of KIT(T670I) (P10721 26-976 T670I): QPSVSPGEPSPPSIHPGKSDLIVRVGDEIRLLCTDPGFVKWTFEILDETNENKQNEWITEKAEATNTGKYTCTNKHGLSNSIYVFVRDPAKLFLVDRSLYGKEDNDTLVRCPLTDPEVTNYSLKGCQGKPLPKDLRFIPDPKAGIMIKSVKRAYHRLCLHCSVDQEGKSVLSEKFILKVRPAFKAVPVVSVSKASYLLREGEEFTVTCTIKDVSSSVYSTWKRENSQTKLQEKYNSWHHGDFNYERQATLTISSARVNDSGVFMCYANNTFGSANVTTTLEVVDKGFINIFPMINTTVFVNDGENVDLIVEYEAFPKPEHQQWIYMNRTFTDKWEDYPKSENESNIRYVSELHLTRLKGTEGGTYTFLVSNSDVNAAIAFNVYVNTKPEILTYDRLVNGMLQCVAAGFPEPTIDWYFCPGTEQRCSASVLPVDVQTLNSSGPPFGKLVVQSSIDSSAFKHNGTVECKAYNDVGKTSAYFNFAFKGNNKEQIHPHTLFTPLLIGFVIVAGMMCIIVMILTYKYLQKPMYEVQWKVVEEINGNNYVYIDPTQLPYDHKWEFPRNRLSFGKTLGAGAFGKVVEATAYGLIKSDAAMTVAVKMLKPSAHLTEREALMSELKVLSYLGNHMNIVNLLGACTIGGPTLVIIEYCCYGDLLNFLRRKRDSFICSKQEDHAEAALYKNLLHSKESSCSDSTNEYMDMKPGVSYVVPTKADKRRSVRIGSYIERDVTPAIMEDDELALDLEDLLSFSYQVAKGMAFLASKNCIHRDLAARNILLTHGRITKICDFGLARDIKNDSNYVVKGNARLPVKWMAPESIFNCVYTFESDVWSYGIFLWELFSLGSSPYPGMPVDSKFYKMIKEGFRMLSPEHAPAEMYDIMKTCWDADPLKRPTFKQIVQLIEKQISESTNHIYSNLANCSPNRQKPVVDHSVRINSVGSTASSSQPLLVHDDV
Sequence of MAP3K1_Cascade (Q13233 whole entry): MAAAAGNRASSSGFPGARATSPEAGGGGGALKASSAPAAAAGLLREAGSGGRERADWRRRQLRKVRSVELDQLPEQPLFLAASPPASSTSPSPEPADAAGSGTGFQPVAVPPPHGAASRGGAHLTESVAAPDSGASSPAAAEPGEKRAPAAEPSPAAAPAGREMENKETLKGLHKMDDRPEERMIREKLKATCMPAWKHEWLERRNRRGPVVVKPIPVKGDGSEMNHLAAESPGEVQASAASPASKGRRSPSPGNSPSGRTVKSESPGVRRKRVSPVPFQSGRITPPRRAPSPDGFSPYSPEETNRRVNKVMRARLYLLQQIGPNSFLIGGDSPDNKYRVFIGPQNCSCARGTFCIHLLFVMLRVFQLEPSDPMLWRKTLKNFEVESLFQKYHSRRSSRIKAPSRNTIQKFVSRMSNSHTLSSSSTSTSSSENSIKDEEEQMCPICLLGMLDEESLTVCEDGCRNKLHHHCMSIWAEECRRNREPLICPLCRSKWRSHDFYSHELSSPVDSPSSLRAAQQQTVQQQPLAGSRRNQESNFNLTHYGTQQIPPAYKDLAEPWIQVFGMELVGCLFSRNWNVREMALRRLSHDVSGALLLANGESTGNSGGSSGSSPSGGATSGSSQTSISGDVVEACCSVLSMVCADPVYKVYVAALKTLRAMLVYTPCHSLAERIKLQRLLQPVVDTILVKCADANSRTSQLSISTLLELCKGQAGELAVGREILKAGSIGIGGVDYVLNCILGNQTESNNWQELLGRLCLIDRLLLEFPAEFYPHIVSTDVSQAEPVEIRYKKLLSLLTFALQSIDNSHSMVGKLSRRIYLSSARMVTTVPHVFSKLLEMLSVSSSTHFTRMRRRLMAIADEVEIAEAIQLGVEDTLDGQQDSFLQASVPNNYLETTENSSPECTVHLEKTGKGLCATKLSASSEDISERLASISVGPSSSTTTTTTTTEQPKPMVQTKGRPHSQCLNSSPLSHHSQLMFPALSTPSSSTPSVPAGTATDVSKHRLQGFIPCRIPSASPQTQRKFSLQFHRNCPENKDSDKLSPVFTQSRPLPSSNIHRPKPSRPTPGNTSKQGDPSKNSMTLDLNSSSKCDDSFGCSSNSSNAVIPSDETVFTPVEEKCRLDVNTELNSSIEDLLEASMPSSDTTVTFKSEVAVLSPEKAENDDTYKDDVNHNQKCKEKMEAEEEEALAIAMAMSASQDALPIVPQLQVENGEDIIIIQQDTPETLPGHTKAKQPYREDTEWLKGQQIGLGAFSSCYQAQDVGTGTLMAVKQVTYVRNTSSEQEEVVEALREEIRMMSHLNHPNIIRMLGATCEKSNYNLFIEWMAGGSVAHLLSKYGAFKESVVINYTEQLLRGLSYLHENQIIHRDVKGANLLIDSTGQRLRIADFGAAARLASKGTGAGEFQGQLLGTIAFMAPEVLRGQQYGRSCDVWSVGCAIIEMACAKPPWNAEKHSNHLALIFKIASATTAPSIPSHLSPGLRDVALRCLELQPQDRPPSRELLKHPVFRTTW
Sequence of RSK1 (Q15418 whole entry): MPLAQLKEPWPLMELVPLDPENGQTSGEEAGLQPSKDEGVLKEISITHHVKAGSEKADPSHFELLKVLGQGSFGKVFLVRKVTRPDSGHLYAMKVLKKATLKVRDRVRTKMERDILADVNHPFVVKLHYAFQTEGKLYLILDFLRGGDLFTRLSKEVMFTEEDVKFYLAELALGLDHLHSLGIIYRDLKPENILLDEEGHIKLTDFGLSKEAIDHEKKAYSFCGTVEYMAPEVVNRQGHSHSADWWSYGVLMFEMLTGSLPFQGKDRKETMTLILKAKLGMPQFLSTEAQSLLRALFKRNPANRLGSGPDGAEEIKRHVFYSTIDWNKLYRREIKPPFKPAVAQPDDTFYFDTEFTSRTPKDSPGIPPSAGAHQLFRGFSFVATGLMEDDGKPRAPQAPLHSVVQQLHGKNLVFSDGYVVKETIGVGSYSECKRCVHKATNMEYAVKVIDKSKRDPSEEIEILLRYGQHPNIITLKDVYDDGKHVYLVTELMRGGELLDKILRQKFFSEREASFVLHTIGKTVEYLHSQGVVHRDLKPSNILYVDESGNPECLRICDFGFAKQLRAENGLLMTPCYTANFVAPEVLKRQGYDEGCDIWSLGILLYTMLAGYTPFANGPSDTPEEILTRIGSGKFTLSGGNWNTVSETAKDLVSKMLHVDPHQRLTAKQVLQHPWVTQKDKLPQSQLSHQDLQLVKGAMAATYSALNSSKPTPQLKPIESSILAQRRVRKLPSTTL
Sequence of KIT (P10721 26-976): as the sequence (P10721 26-976 T670I) above, with I645T counted along it
Sequence of BRK (Q13882 whole entry): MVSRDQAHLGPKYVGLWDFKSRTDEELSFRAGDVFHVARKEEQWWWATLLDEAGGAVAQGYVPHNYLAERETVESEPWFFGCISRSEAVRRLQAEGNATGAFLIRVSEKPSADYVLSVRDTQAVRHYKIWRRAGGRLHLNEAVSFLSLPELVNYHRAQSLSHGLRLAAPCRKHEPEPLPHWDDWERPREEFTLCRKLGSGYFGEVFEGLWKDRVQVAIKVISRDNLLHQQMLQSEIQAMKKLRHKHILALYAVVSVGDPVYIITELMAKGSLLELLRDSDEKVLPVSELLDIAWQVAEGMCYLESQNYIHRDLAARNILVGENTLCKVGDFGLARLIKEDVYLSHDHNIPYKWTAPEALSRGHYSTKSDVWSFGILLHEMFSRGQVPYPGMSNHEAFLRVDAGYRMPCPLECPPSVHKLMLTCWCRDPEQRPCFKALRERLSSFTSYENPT
Sequence of KIT(D816E) (P10721 26-976 D816E): as the sequence (P10721 26-976 T670I) above, with I645T, D791E counted along it

With `CC[C@@]1(c2ccccc2)C2=C(CC(C)(C)CC2=O)Nc2n[nH]cc21` [BRD0705] as the compound, how does the “% Inhibition at 10 μM” value (MAP4K2) read?
Its value is −0.7%.

What about the “% Inhibition at 10 μM” value (MUSK) of the same compound?
Its value is −0.6%.

What about the “% Inhibition at 10 μM” value (CK1ε) of the same compound?
The value was −0.4%.

What about the “% Inhibition at 10 μM” value (BRK) of the same compound?
The value was −1.4%.

And the “% Inhibition at 10 μM” value (EPHA1)?
Its value is −2.3%.

What about the “% Inhibition at 10 μM” value (KIT(T670I)) of the same compound?
The value was −0.8%.

And the “% Inhibition at 10 μM” value (PKACα)?
Its value is 3.4%.

What about the “pGSK3αY279 level (Western blot)” value [1] of the same compound?
Its value is “dose dependent decrease”.

And the “pGSK3βY216 and β-catenin levels (Western blot)” value [1]?
Its value is “without effecting”.

What about the “% Inhibition at 10 μM” value (PKD1) of the same compound?
The value was −6.8%.

What about the “% Inhibition at 10 μM” value (PGK) of the same compound?
Its value is −2.1%.

What about the “% Inhibition at 10 μM” value (PKR) of the same compound?
The value was 2.0%.

What about the “% Inhibition at 10 μM” value (MSSK1) of the same compound?
Its value is −1.6%.

And the “% Inhibition at 10 μM” value (DYRK1A)?
Its value is −3.1%.

What about the “% Inhibition at 10 μM” value (SYK) of the same compound?
The value was 0.6%.

What about the “% Inhibition at 10 μM” value (PKCβ1) of the same compound?
Its value is −6.5%.

And the “% Inhibition at 10 μM” value (HER2)?
The value was −11.1%.

What about the “% Inhibition at 10 μM” value (MAP3K1_Cascade) of the same compound?
The value was 1.8%.

What about the Excess protein synthesis [2] of the same compound?
The Excess protein synthesis was “correction of excess protein synthesis”.

What about the “% Inhibition at 10 μM” value (IKKα) of the same compound?
The value was −0.2%.

And the “% Inhibition at 10 μM” value (FGFR4(N535K))?
The value was 22.1%.

And the “% Inhibition at 10 μM” value (CDC2/CycB1)?
The value was 17.2%.

And the “% Inhibition at 10 μM” value (KIT)?
The value was −0.3%.

What about the Audiogenic seizure phenotype [3] of the same compound?
The Audiogenic seizure phenotype was “reduces audiogenic seizures”.

What about the “% Inhibition at 10 μM” value (RSK1) of the same compound?
The value was −6.4%.

What about the “% Inhibition at 10 μM” value (PKCβ2) of the same compound?
Its value is −5.7%.

`CC(C)(C)Cc1[nH]nc2c1[C@](C)(c1ccccc1)C1=C(CC(C)(C)CC1=O)N2` [BRD3731] was tested. Which “% Inhibition 10 μM” value (LKB1) did it give?
The value was 3.4%.

And the “% Inhibition 10 μM” value (MAP4K2; 10 μM)?
Its value is −7.5%.

What about the “% Inhibition 10 μM” value (MUSK; 10 μM) of the same compound?
Its value is −7.9%.

What about the “% Inhibition 10 μM” value (CK1ε; 10 μM) of the same compound?
Its value is 28.0%.

And the “% Inhibition 10 μM” value (BRK; 10 μM)?
The value was −5.6%.

What about the “% Inhibition 10 μM” value (EPHA1; 10 μM) of the same compound?
The value was 2.1%.

And the “% Inhibition 10 μM” value (KIT(T670I); 10 μM)?
The value was −0.3%.

What about the “% Inhibition 10 μM” value (PKACα; 10 μM) of the same compound?
Its value is 17.1%.

And the “% Inhibition 10 μM” value (PKD1; 10 μM)?
Its value is 8.9%.

And the “% Inhibition 10 μM” value (GSK3α)?
The value was 96.8%.

And the “Fold Selectivity” value (GSK3α)?
Its value is 7.8 fold.

What about the IC50 (GSK3α) of the same compound?
Its IC50 is 211 nM.

What about the “% Inhibition 10 μM” value (WEE1) of the same compound?
Its value is −9.1%.

What about the “% Inhibition 10 μM” value (PGK; 10 μM) of the same compound?
Its value is 1.9%.

What about the “% Inhibition 10 μM” value (PKR; 10 μM) of the same compound?
Its value is 3.1%.

And the “% Inhibition 10 μM” value (MET(M1250T))?
Its value is 0.8%.

And the “% Inhibition 10 μM” value (MSSK1; 10 μM)?
The value was 2.8%.

And the “% Inhibition 10 μM” value (PLK4)?
Its value is 14.3%.

What about the “% Inhibition 10 μM” value (DYRK1A; 10 μM) of the same compound?
Its value is 3.3%.

And the “% Inhibition 10 μM” value (TTK)?
Its value is 5.4%.

What about the “% Inhibition 10 μM” value (KIT(D816E)) of the same compound?
Its value is 3.9%.

What about the “% Inhibition 10 μM” value (SYK; 10 μM) of the same compound?
The value was −11.0%.

What about the “% Inhibition 10 μM” value (PKCβ1; 10 μM) of the same compound?
The value was 4.1%.

And the “% Inhibition 10 μM” value (MET(D1228H))?
Its value is 0.0%.

And the “% Inhibition 10 μM” value (BMPR1A)?
Its value is −4.4%.

And the “% Inhibition 10 μM” value (HER2; 10 μM)?
The value was 3.8%.

What about the “% Inhibition 10 μM” value (LIMK1) of the same compound?
The value was 7.5%.

What about the “% Inhibition 10 μM” value (MAP3K1_Cascade; 10 μM) of the same compound?
The value was 4.0%.

And the “% Inhibition 10 μM” value (IKKα; 10 μM)?
The value was 1.8%.

And the “% Inhibition 10 μM” value (CDC2/CycB1; 10 μM)?
Its value is 27.8%.

What about the “% Inhibition 10 μM” value (KIT; 10 μM) of the same compound?
Its value is −1.7%.

And the “% Inhibition 10 μM” value (RSK1; 10 μM)?
Its value is 23.4%.

And the “% Inhibition 10 μM” value (PKCβ2; 10 μM)?
The value was 3.8%.
